Source: ChEMBL document CHEMBL3045432, “Synthesis and Fungicidal Activity of -Cyanoacetamide Derivatives: Discovery of a New Rice Blast Fungicide, Diclocymet (S-2900)” (2002)

Legend:
Type in all cases: functional
Pyricularia grisea [1] = test: Fungicidal activity against Magnaporthe grisea in rice plant assessed as prevention from rice blast disease measured as lesions under greenhouse at > 200 ppm for 8 days by foliar spray compound treated before inoculation
Pyricularia grisea [2] = test: Fungicidal activity against Magnaporthe grisea in rice plant assessed as prevention from rice blast disease measured as lesions under greenhouse at > 200 ppm for 8 days by soil drench compound treated before inoculation
Pyricularia grisea [3] = test: Fungicidal activity against Magnaporthe grisea in rice plant assessed as prevention from rice blast disease measured as lesions under greenhouse at 200 ppm for 8 days by foliar spray compound treated before inoculation
Pyricularia grisea [4] = test: Fungicidal activity against Magnaporthe grisea in rice plant assessed as prevention from rice blast disease measured as lesions under greenhouse at 50 ppm for 8 days by soil drench compound treated before inoculation
Pyricularia grisea [5] = test: Fungicidal activity against Magnaporthe grisea in rice plant assessed as prevention from rice blast disease measured as lesions under greenhouse at 50 ppm for 8 days by foliar spray compound treated before inoculation
Pyricularia grisea [6] = test: Fungicidal activity against Magnaporthe grisea in rice plant assessed as prevention from rice blast disease measured as lesions under greenhouse at 200 ppm for 8 days by soil drench compound treated before inoculation
Pyricularia grisea [7] = test: Fungicidal activity against Magnaporthe grisea in rice plant assessed as prevention from rice blast disease measured as lesions under greenhouse at 3.1 ppm for 8 days by foliar spray compound treated before inoculation
Pyricularia grisea [8] = test: Fungicidal activity against Magnaporthe grisea in rice plant assessed as prevention from rice blast disease measured as lesions under greenhouse at 12.5 ppm for 8 days by soil drench compound treated before inoculation
Pyricularia grisea [9] = test: Fungicidal activity against Magnaporthe grisea in rice plant assessed as rice blast disease measured as damage under greenhouse by foliar spray for 8 days compound treated before inoculation; settings: 192 h
Pyricularia grisea [10] = test: Fungicidal activity against Magnaporthe grisea in rice plant assessed as rice blast disease measured as damage under greenhouse at 25 ppm for 8 days by foliar spray compound treated before inoculation
Pyricularia grisea [11] = test: Fungicidal activity against Magnaporthe grisea in rice plant assessed as rice blast disease measured as damage under greenhouse at 6.3 ppm for 8 days by foliar spray compound treated before inoculation
Pyricularia grisea [12] = test: Fungicidal activity against Magnaporthe grisea in rice plant assessed as rice blast disease measured as damage under greenhouse at 1.6 ppm for 8 days by foliar spray compound treated before inoculation
Pyricularia grisea [13] = test: Fungicidal activity against Magnaporthe grisea in rice plant assessed as rice blast disease measured as damage under greenhouse at 0.4 ppm for 8 days by foliar spray compound treated before inoculation

Structure (SMILES)	Activity (Pyricularia grisea [1])	Activity (Pyricularia grisea [2])	Activity (Pyricularia grisea [3])	other results
CC(C)=C(C#N)C(=O)NC(C)c1ccc(Cl)cc1 (centres undefined)	<=10%	<=10%		
CC(NC(=O)C1(C#N)CCCC1)c1ccc(Cl)cc1 (centres undefined)	<=10%	<=10%		
CC(NC(=O)C1(C#N)CCCCC1)c1ccc(Cl)cc1 (centres undefined)	<=10%	<=10%		
CCC(C#N)(CC)C(=O)NC(C)c1ccc(Cl)cc1 (centres undefined)	<=10%	<=10%		
CC(NC(=O)C(C)(C#N)C(C)(C)C)c1ccc(Cl)cc1 (centres undefined)		<=10%	<=10%	
CC(NC(=O)C(Br)(C#N)C(C)(C)C)c1ccc(Cl)cc1 (centres undefined)			<=10%	Activity (Pyricularia grisea [4]): <=10%
CC(NC(=O)C(C)(C#N)C(C)C)c1ccc(Cl)cc1 (centres undefined)	<=10%	<=10%		
CC(NC(=O)C(C)(C)C#N)c1ccc(Cl)cc1 (centres undefined)	<=10%	<=10%		
CC(NC(=O)C(C#N)c1ccccc1)c1ccc(Cl)cc1 (centres undefined)	<=10%	<=10%		
CC(NC(=O)C(C#N)C1CCCC1)c1ccc(Cl)cc1 (centres undefined)				Activity (Pyricularia grisea [5]): <=10%; Activity (Pyricularia grisea [6]): <=10%
CC(NC(=O)C(C#N)C1CCCCC1)c1ccc(Cl)cc1 (centres undefined)		<=10%	<=10%	
C#CC(C)(C)C(C#N)C(=O)NC(C)c1ccc(Cl)cc1 (centres undefined)				Activity (Pyricularia grisea [7]): <=10%; Activity (Pyricularia grisea [8]): <=10%
C=CC(C)(C)C(C#N)C(=O)NC(C)c1ccc(Cl)cc1 (centres undefined)				Activity (Pyricularia grisea [7]): <=10%; Activity (Pyricularia grisea [8]): <=10%
CC(NC(=O)C(C#N)CC(C)(C)C)c1ccc(Cl)cc1 (centres undefined)			<=10%	Activity (Pyricularia grisea [4]): <=10%
CCC(CC)C(C#N)C(=O)NC(C)c1ccc(Cl)cc1 (centres undefined)				Activity (Pyricularia grisea [7]): <=10%; Activity (Pyricularia grisea [4]): <=10%
CCC(C)C(C#N)C(=O)NC(C)c1ccc(Cl)cc1 (centres undefined)				Activity (Pyricularia grisea [5]): <=10%; Activity (Pyricularia grisea [4]): <=10%
CC(C)CC(C#N)C(=O)NC(C)c1ccc(Cl)cc1 (centres undefined)			<=10%	Activity (Pyricularia grisea [6]): <=10%

Structure (SMILES)	Activity (Pyricularia grisea [1])	Activity (Pyricularia grisea [2])	Activity (Pyricularia grisea [3])	other results
CCCCC(C#N)C(=O)NC(C)c1ccc(Cl)cc1 (centres undefined)				Activity (Pyricularia grisea [5]): <=10%; Activity (Pyricularia grisea [6]): <=10%
CC(NC(=O)C(C#N)C(C)C)c1ccc(Cl)cc1 (centres undefined)			<=10%	Activity (Pyricularia grisea [4]): <=10%
CC(C#N)C(=O)NC(C)c1ccc(Cl)cc1 (centres undefined)	<=10%	<=10%		
CC(NC(=O)C(C(C)(C)C)S(C)(=O)=O)c1ccc(Cl)cc1 (centres undefined)		<=10%	<=10%	
CC(NC(=O)C(O)C(C)(C)C)c1ccc(Cl)cc1 (centres undefined)	<=10%	<=10%	<=10%	
CC(NC(=O)C([S+](C)[O-])C(C)(C)C)c1ccc(Cl)cc1 (centres undefined)	<=10%	<=10%		
COC(C(=O)NC(C)c1ccc(Cl)cc1)C(C)(C)C (centres undefined)	<=10%	<=10%	<=10%	
C#CC(C(=O)NC(C)c1ccc(Cl)cc1)C(C)(C)C (centres undefined)		<=10%	<=10%	
CC(NC(=O)C(C#N)C(C)(C)C)c1ccc(Cl)cc1 (centres undefined)				Activity (Pyricularia grisea [7]): <=10%; Activity (Pyricularia grisea [8]): <=10%
CC(NC(=O)C(F)C(C)(C)C)c1ccc(Cl)cc1 (centres undefined)	<=10%	<=10%		
CSC(C(=O)NC(C)c1ccc(Cl)cc1)C(C)(C)C (centres undefined)		<=10%	<=10%	
CC(NC(=O)C(Br)C(C)(C)C)c1ccc(Cl)cc1 (centres undefined)				Activity (Pyricularia grisea [6]): <=10%
CC(C)(C)C(C#N)C(=O)NCCc1ccc(Cl)cc1 (centres undefined)		<=10%	<=10%	
CC(Cc1ccc(Cl)cc1)NC(=O)C(C#N)C(C)(C)C (centres undefined)		<=10%	<=10%	
COC(NC(=O)C(C#N)C(C)(C)C)c1ccc(Cl)cc1 (centres undefined)	<=10%	<=10%		
C[C@@H](NC(=O)C(C#N)C(C)(C)C)c1ccc(Cl)cc1Cl (mixture of isomers) [DICLOCYMET]				MIC (Pyricularia grisea [9]): 0.08 µg/mL; Activity (Pyricularia grisea [10]): 4%; Activity (Pyricularia grisea [11]): 4%; Activity (Pyricularia grisea [12]): 3%; Activity (Pyricularia grisea [13]): 2%
O=C1OCc2c(Cl)c(Cl)c(Cl)c(Cl)c21 [4,5,6,7-TETRACHLOROPHTHALIDE]				Activity (Pyricularia grisea [10]): 4%; Activity (Pyricularia grisea [11]): 1%; Activity (Pyricularia grisea [12]): 0%; Activity (Pyricularia grisea [13]): 0%
